Measured values reported in ChEMBL document CHEMBL5385942, “C3-Symmetric ligands in drug design: An overview of the challenges and opportunities ahead” (Bioorg Med Chem Lett, 2024).
“And” between values parts separate entries of the source, which are not always exact repeats. Equal entries are not always repeated. Blank lines part the entries; values can stand above or below the compound they belong to. The source made the active and inactive calls. The rule behind the calls is not given here.

Tests used:
[1] = test system: Human alphaherpesvirus 1; test: Antiviral activity against HSV-1 infected in African green monkey Vero cells by plaque reduction assay; type: functional, organism-based; details: Human alphaherpesvirus 1, Vero
[2] = test system: Quadruplex DNA; test: Stabilization of human G4 quadruplex telomeric22 DNA assessed as change in temperature at 5 uM by FRET assay; type: nucleic-acid assay
[3] = test system: Quadruplex DNA; test: Stabilization of human G4 quadruplex telomeric22 DNA assessed as change in temperature at 1 uM by FRET assay; type: nucleic-acid assay
[4] = test system: Quadruplex DNA; test: Stabilization of human G4 quadruplex telomeric22 DNA assessed as change in temperature at 10 uM by FRET assay; type: nucleic-acid assay
[5] = test system: Staphylococcus aureus; test: Antimicrobial activity against Staphylococcus aureus MTCC 96 assessed as zone of inhibition by […]; type: functional
[6] = test system: Micrococcus luteus; test: Antimicrobial activity against Micrococcus luteus ATCC 9341 assessed as zone of inhibition by […]; type: functional
[7] = test system: Bacillus subtilis; test: Antimicrobial activity against Bacillus subtilis MTCC 441 assessed as zone of inhibition by […]; type: functional
[8] = test system: Quadruplex DNA; test: Stabilization of human G4 quadruplex telomeric22 DNA assessed as change in temperature at 2 uM by FRET assay; type: nucleic-acid assay
[9] = test system: dsDNA; test: Stabilization of human duplex DNA assessed as change in temperature at 1 uM by FRET assay; type: nucleic-acid assay

Compound: CC(C)(C)Oc1nc(N)nc(OC(C)(C)C)n1
EC50 [1]: > 100 µM

Compound: c1ccc(CNc2nc(NCc3ccccc3)nc(NCc3ccccc3)n2)cc1
EC50 [1]: 13.2 µM

Compound: FC(F)(F)c1ccc(CNc2nc(NCc3ccc(C(F)(F)F)cc3)nc(NCc3ccc(C(F)(F)F)cc3)n2)cc1
EC50 [1]: 7.4 µM

Compound: O=C(/C=C/c1ccc(Cl)cc1Cl)c1ccc(Oc2nc(Oc3ccc(C(=O)/C=C/c4ccc(Cl)cc4Cl)cc3)nc(Oc3ccc(C(=O)/C=C/c4ccc(Cl)cc4Cl)cc3)n2)cc1
inhibition zone (IZ) [5]: 10 mm and 7 mm
inhibition zone (IZ) [6]: 7 mm and 10 mm
inhibition zone (IZ) [7]: 7 mm and 8 mm

Compound: COc1ccc(CNc2nc(NCc3ccc(OC)c(OC)c3OC)nc(NCc3ccc(OC)c(OC)c3OC)n2)c(OC)c1OC
EC50 [1]: 28 µM

Compound: COc1ccc(CNc2nc(NCc3ccc(OC)cc3OC)nc(NCc3ccc(OC)cc3OC)n2)c(OC)c1
EC50 [1]: > 100 µM

Compound: FC(F)CNc1nc(NCC(F)F)nc(NCC(F)F)n1
EC50 [1]: 24.4 µM

Compound: NC(=S)N1N=C(c2ccc(Oc3nc(Oc4ccc(C5=NN(C(N)=S)C(c6ccc([N+](=O)[O-])cc6)C5)cc4)nc(Oc4ccc(C5=NN(C(N)=S)C(c6ccc([N+](=O)[O-])cc6)C5)cc4)n3)cc2)CC1c1ccc([N+](=O)[O-])cc1 (stereo not drawn)
inhibition zone (IZ) [7]: 10 mm

Compound: NC(=S)N1N=C(c2ccc(Oc3nc(Oc4ccc(C5=NN(C(N)=S)C(c6cccc([N+](=O)[O-])c6)C5)cc4)nc(Oc4ccc(C5=NN(C(N)=S)C(c6cccc([N+](=O)[O-])c6)C5)cc4)n3)cc2)CC1c1cccc([N+](=O)[O-])c1 (stereo not drawn)
inhibition zone (IZ) [5]: 10 mm
inhibition zone (IZ) [6]: 16 mm
inhibition zone (IZ) [7]: 13 mm

Compound: c1ccc2c(c1)c1cc(-c3cc(-c4ccc5c(c4)c4ccccc4n5CCN4CCOCC4)cc(-c4ccc5c(c4)c4ccccc4n5CCN4CCOCC4)c3)ccc1n2CCN1CCOCC1
Activity [2]: inactive
Activity [3]: inactive
Activity [4]: inactive

Compound: NC(=S)N1N=C(c2ccc(Oc3nc(Oc4ccc(C5=NN(C(N)=S)C(c6ccccc6)C5)cc4)nc(Oc4ccc(C5=NN(C(N)=S)C(c6ccccc6)C5)cc4)n3)cc2)CC1c1ccccc1 (stereo not drawn)
inhibition zone (IZ) [5]: 13 mm
inhibition zone (IZ) [6]: 15 mm
inhibition zone (IZ) [7]: 11 mm

Compound: c1ccc2c(c1)c1cc(-c3cc(-c4ccc5c(c4)c4ccccc4n5CCN4CCCCC4)cc(-c4ccc5c(c4)c4ccccc4n5CCN4CCCCC4)c3)ccc1n2CCN1CCCCC1
ΔTm [2]: 2.3 °C
Activity [3]: inactive
ΔTm [4]: 4.9 °C

Compound: CC(C)CNc1nc(NCC(C)C)nc(NCC(C)C)n1
EC50 [1]: 29.8 µM

Compound: c1cc2c(cc1CNc1nc(NCc3ccc4c(c3)OCO4)nc(NCc3ccc4c(c3)OCO4)n1)OCO2
EC50 [1]: 5.4 µM

Compound: Cc1ccc(/C=C/C(=O)c2ccc(Oc3nc(Oc4ccc(C(=O)/C=C/c5ccc(C)cc5)cc4)nc(Oc4ccc(C(=O)/C=C/c5ccc(C)cc5)cc4)n3)cc2)cc1
inhibition zone (IZ) [5]: 7 mm
inhibition zone (IZ) [6]: 11 mm
inhibition zone (IZ) [7]: 10 mm

Compound: NC(=S)N1N=C(c2ccc(Oc3nc(Oc4ccc(C5=NN(C(N)=S)C(c6ccc(Cl)cc6)C5)cc4)nc(Oc4ccc(C5=NN(C(N)=S)C(c6ccc(Cl)cc6)C5)cc4)n3)cc2)CC1c1ccc(Cl)cc1 (stereo not drawn)
inhibition zone (IZ) [5]: 11 mm
inhibition zone (IZ) [6]: 18 mm
inhibition zone (IZ) [7]: 10 mm

Compound: CC(C)COc1nc(N)nc(OCC(C)C)n1
EC50 [1]: > 100 µM

Compound: Clc1ccc(CNc2nc(NCc3ccc(Cl)cc3)nc(NCc3ccc(Cl)cc3)n2)cc1
EC50 [1]: 11 µM

Compound: CC(C)Nc1nc(NC(C)C)nc(NC(C)C)n1
EC50 [1]: 27.3 µM

Compound: O=C(/C=C/c1ccc(Cl)cc1)c1ccc(Oc2nc(Oc3ccc(C(=O)/C=C/c4ccc(Cl)cc4)cc3)nc(Oc3ccc(C(=O)/C=C/c4ccc(Cl)cc4)cc3)n2)cc1
inhibition zone (IZ) [6]: 8 mm
inhibition zone (IZ) [7]: 7 mm

Compound: O=C(/C=C/c1cccc([N+](=O)[O-])c1)c1ccc(Oc2nc(Oc3ccc(C(=O)/C=C/c4cccc([N+](=O)[O-])c4)cc3)nc(Oc3ccc(C(=O)/C=C/c4cccc([N+](=O)[O-])c4)cc3)n2)cc1
inhibition zone (IZ) [6]: 5 mm
inhibition zone (IZ) [7]: 7 mm

Compound: Nc1nc(OC(C(F)(F)F)C(F)(F)F)nc(OC(C(F)(F)F)C(F)(F)F)n1
EC50 [1]: > 100 µM

Compound: COc1ccc(CNc2nc(NCc3ccc(OC)c(OC)c3)nc(NCc3ccc(OC)c(OC)c3)n2)cc1OC
EC50 [1]: 0.98 µM

Continued, values first:

ΔTm [2]: 8.4 °C
ΔTm [3]: 5.1 °C
ΔTm [4]: 11.5 °C
Compound: CCN(CC)CCCn1c2ccccc2c2cc(-c3cc(-c4ccc5c(c4)c4ccccc4n5CCCN(CC)CC)cc(-c4ccc5c(c4)c4ccccc4n5CCCN(CC)CC)c3)ccc21

EC50 [1]: 38.7 µM
Compound: Cc1ccc(CNc2nc(NCc3ccc(C)cc3)nc(NCc3ccc(C)cc3)n2)cc1

ΔTm [3]: 0 °C
ΔTm [8]: 1 °C
ΔTm [9]: 0 °C
Compound: CCNCC(=O)Nc1ccc(-c2cn(Cc3cc(Cn4cc(-c5ccc(NC(=O)CNCC)cc5)nn4)cc(Cn4cc(-c5ccc(NC(=O)CNCC)cc5)nn4)c3)nn2)cc1

Activity [2]: inactive
Activity [3]: inactive
Activity [4]: inactive
Compound: c1ccc2c(c1)c1cc(-c3cc(-c4ccc5c(c4)c4ccccc4n5CCCN4CCOCC4)cc(-c4ccc5c(c4)c4ccccc4n5CCCN4CCOCC4)c3)ccc1n2CCCN1CCOCC1

ΔTm [3]: 2 °C
ΔTm [8]: 7 °C
ΔTm [9]: 0 °C
Compound: CNCCCC(=O)Nc1ccc(-c2cn(Cc3cc(Cn4cc(-c5ccc(NC(=O)CCCNC)cc5)nn4)cc(Cn4cc(-c5ccc(NC(=O)CCCNC)cc5)nn4)c3)nn2)cc1

ΔTm [3]: 0 °C
ΔTm [8]: 0 °C
ΔTm [9]: 0 °C
Compound: CCCOCCNCCCC(=O)Nc1ccc(-c2cn(Cc3cc(Cn4cc(-c5ccc(NC(=O)CCCNCCOCCC)cc5)nn4)cc(Cn4cc(-c5ccc(NC(=O)CCCNCCOCCC)cc5)nn4)c3)nn2)cc1

ΔTm [2]: 4.9 °C
ΔTm [3]: 2.8 °C
ΔTm [4]: 3.3 °C
Compound: CCN(CC)CCn1c2ccccc2c2cc(-c3cc(-c4ccc5c(c4)c4ccccc4n5CCN(CC)CC)cc(-c4ccc5c(c4)c4ccccc4n5CCN(CC)CC)c3)ccc21

ΔTm [3]: 0 °C
ΔTm [8]: 0 °C
ΔTm [9]: 0 °C
Compound: CCCOCCNCCC(=O)Nc1ccc(-c2cn(Cc3cc(Cn4cc(-c5ccc(NC(=O)CCNCCOCCC)cc5)nn4)cc(Cn4cc(-c5ccc(NC(=O)CCNCCOCCC)cc5)nn4)c3)nn2)cc1

ΔTm [3]: 0 °C
ΔTm [8]: 0 °C
ΔTm [9]: 0 °C
Compound: CCCOCCNCC(=O)Nc1ccc(-c2cn(Cc3cc(Cn4cc(-c5ccc(NC(=O)CNCCOCCC)cc5)nn4)cc(Cn4cc(-c5ccc(NC(=O)CNCCOCCC)cc5)nn4)c3)nn2)cc1

ΔTm [9]: 0 °C
Compound: CNCCC(=O)Nc1ccc(-c2cn(Cc3cc(Cn4cc(-c5ccc(NC(=O)CCNC)cc5)nn4)cc(Cn4cc(-c5ccc(NC(=O)CCNC)cc5)nn4)c3)nn2)cc1

EC50 [1]: > 100 µM
Compound: COc1ccc(CNc2nc(NCc3ccc(OC)cc3)nc(NCc3ccc(OC)cc3)n2)cc1

ΔTm [3]: 1 °C
ΔTm [8]: 1 °C
ΔTm [9]: 0 °C
Compound: CCCCCCNCCCC(=O)Nc1ccc(-c2cn(Cc3cc(Cn4cc(-c5ccc(NC(=O)CCCNCCCCCC)cc5)nn4)cc(Cn4cc(-c5ccc(NC(=O)CCCNCCCCCC)cc5)nn4)c3)nn2)cc1

ΔTm [3]: 1 °C
ΔTm [8]: 7 °C
ΔTm [9]: 0 °C
Compound: CCCCCNCCC(=O)Nc1ccc(-c2cn(Cc3cc(Cn4cc(-c5ccc(NC(=O)CCNCCCCC)cc5)nn4)cc(Cn4cc(-c5ccc(NC(=O)CCNCCCCC)cc5)nn4)c3)nn2)cc1

ΔTm [3]: 2 °C
ΔTm [8]: 5 °C
ΔTm [9]: 0 °C
Compound: CCCCCNCCCC(=O)Nc1ccc(-c2cn(Cc3cc(Cn4cc(-c5ccc(NC(=O)CCCNCCCCC)cc5)nn4)cc(Cn4cc(-c5ccc(NC(=O)CCCNCCCCC)cc5)nn4)c3)nn2)cc1

ΔTm [2]: 17 °C
ΔTm [3]: 6 °C
ΔTm [4]: 19.9 °C
Compound: c1ccc2c(c1)c1cc(-c3cc(-c4ccc5c(c4)c4ccccc4n5CCCN4CCCCC4)cc(-c4ccc5c(c4)c4ccccc4n5CCCN4CCCCC4)c3)ccc1n2CCCN1CCCCC1

ΔTm [3]: 1 °C
ΔTm [8]: 1 °C
ΔTm [9]: 0 °C
Compound: CNCC(=O)Nc1ccc(-c2cn(Cc3cc(Cn4cc(-c5ccc(NC(=O)CNC)cc5)nn4)cc(Cn4cc(-c5ccc(NC(=O)CNC)cc5)nn4)c3)nn2)cc1

ΔTm [3]: 0 °C
ΔTm [8]: 0 °C
ΔTm [9]: 0 °C
Compound: CCCCCNCC(=O)Nc1ccc(-c2cn(Cc3cc(Cn4cc(-c5ccc(NC(=O)CNCCCCC)cc5)nn4)cc(Cn4cc(-c5ccc(NC(=O)CNCCCCC)cc5)nn4)c3)nn2)cc1

ΔTm [2]: 4 °C
ΔTm [3]: 1.1 °C
ΔTm [4]: 2.6 °C
Compound: c1ccc2c(c1)[nH]c1ccc(-c3cc(-c4ccc5[nH]c6ccccc6c5c4)cc(-c4ccc5[nH]c6ccccc6c5c4)c3)cc12

ΔTm [3]: 4 °C
ΔTm [8]: 11 °C
ΔTm [9]: 0 °C
Compound: CCCCCCNCCC(=O)Nc1ccc(-c2cn(Cc3cc(Cn4cc(-c5ccc(NC(=O)CCNCCCCCC)cc5)nn4)cc(Cn4cc(-c5ccc(NC(=O)CCNCCCCCC)cc5)nn4)c3)nn2)cc1

ΔTm [9]: 0 °C
Compound: CCNCCC(=O)Nc1ccc(-c2cn(Cc3cc(Cn4cc(-c5ccc(NC(=O)CCNCC)cc5)nn4)cc(Cn4cc(-c5ccc(NC(=O)CCNCC)cc5)nn4)c3)nn2)cc1

ΔTm [2]: 14.3 °C
ΔTm [3]: 2.6 °C
ΔTm [4]: 17.5 °C
Compound: c1ccc2c(c1)c1cc(-c3cc(-c4ccc5c(c4)c4ccccc4n5CCCN4CCCC4)cc(-c4ccc5c(c4)c4ccccc4n5CCCN4CCCC4)c3)ccc1n2CCCN1CCCC1

ΔTm [3]: 1 °C
ΔTm [8]: 2 °C
ΔTm [9]: 0 °C
Compound: CCNCCCC(=O)Nc1ccc(-c2cn(Cc3cc(Cn4cc(-c5ccc(NC(=O)CCCNCC)cc5)nn4)cc(Cn4cc(-c5ccc(NC(=O)CCCNCC)cc5)nn4)c3)nn2)cc1

ΔTm [3]: 2 °C
ΔTm [8]: 2 °C
ΔTm [9]: 0 °C
Compound: CCCCCCNCC(=O)Nc1ccc(-c2cn(Cc3cc(Cn4cc(-c5ccc(NC(=O)CNCCCCCC)cc5)nn4)cc(Cn4cc(-c5ccc(NC(=O)CNCCCCCC)cc5)nn4)c3)nn2)cc1

ΔTm [2]: 10 °C
ΔTm [3]: 1.9 °C
ΔTm [4]: 13 °C
Compound: c1ccc2c(c1)c1cc(-c3cc(-c4ccc5c(c4)c4ccccc4n5CCN4CCCC4)cc(-c4ccc5c(c4)c4ccccc4n5CCN4CCCC4)c3)ccc1n2CCN1CCCC1
